Data set [1] relates to antiestrogen-binding sites (AEBS). Nature of the data set: Competitive displacement of [3H]tamoxifen from AEBS in EL4 whole cells. Conditions: 5 nM [3H]tamoxifen, competitor 50 nM-1000 nM, tamoxifen = 100, mean ± SEM of two experiments. How it is done:
^a Determined by competitive ligand binding assays using EL4 whole
cells as the source of AEBS. Cells were incubated with 5 nM [^3
unlabelled competing ligand (50 nM-1000 nM). The binding reaction was
where RBA50 is the concentration required to reduce bound [^3
competiting ligand). The data are the mean ± SEM of two experiments.
For orientation: In a radioligand displacement assay an active substance lowers the binding of a labelled ligand.

Data set [2] addresses T1, estrogen receptor (ER) (Homo sapiens, UniProt P03372).
T1 construct: ER present in an established human breast carcinoma-derivedcell line, MCF7; endogenous in cells; host or cells: MCF7 whole cells
T1 sequence (P03372 1-595): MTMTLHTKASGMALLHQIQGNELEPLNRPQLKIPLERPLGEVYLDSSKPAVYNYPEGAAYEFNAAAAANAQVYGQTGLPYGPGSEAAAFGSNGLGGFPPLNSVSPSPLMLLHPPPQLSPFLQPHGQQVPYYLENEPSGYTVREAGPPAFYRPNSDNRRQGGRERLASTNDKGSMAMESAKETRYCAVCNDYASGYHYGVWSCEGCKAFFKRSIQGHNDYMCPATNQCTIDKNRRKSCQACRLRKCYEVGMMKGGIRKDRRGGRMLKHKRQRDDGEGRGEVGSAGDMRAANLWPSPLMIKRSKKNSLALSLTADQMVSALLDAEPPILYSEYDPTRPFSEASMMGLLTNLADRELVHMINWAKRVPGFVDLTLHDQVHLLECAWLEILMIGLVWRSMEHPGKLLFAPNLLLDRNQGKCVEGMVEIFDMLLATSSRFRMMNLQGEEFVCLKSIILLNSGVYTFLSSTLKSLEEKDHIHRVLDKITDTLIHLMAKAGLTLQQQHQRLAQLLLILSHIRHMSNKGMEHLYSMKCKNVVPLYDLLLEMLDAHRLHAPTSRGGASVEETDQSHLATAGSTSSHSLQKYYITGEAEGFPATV
Briefly: Competitive displacement of [3H]estradiol from ER in MCF7 whole cells. It is filed as binding. The following applies: 5 nM [3H]estradiol, hundredfold excess of test compound, mean ± SEM of two experiments, read-out: Bound [3H]estradiol (% of control). How it is done:
^a Determined by competitive ligand binding assays using MCF7 whole
cells as the receptor source. Cells were incubated with 5 nM [^3
H]estradiol in the absence or presence of a hundredfold excess of DES or
each test compound. The binding reaction was performed and bound [^3
H]estradiol quantitated as described in the experimental section.
^b Bound [^3 H]estradiol in the absence of unlabelled competing
ligand was set at 100%. The data are the mean ± SEM of two experiments

Data set [3] concerns EL4 cells. Nature of the data set: [3H]Thymidine incorporation (antiproliferative activity) by EL4 cells. The data set is classed as cell-based. Conditions: Mus musculus, 48 hours, mean ± SEM of two experiments, read-out: IC50 EL4 (inhibition of [3H]thymidine incorporation). The procedure: (§1) After 48 hours, each well was pulsed with [^3 H]thymidine (New England Nuclear)(74 KBq/well, 0.02 ml/well) for 60 minutes. Macromolecular incorporation of [^3 H]thymidine was quantitated by harvesting cells on a Brandel harvester fitted with scintillant-coated glass microfibre filters (Ready Filters, Beckman).
(§2) [^3 H]Thymidine incorporation by MCF7 and RTx6 cells was determined by the same technique with the following modifications: (i) cells were plated at 4,500 cells/well (0.18 ml/well); (ii) compounds and [^3 H]thymidine (37 KBq/well, 0.02 ml/well) were added 24 hours after plating; (iii) cells were trypsinized (0.05 ml of 0.05%/0.53 mM EDTA/well) prior to harvesting.
In general terms: Uptake of a labelled nucleoside into DNA is a usual measure of proliferation.

In data set [4] the test system is MCF7 cells. Briefly: [3H]Thymidine incorporation (antiproliferative activity) by MCF7 cells. Conditions: Homo sapiens, 48 hours, mean ± SEM of two experiments, read-out: IC50 MCF7 (inhibition of [3H]thymidine incorporation). It is filed as cell-based. How it is done:
as §1, §2

For data set [5], the system named is human breast carcinoma. Conditions: clinical trials; prior art; cited from earlier work.
In data set [6] the test system is estrogen receptor (ER). The following applies: prior art, cited from earlier work.
Data set [7] concerns cholesterol biosynthesis by EL4 cells. Briefly: De novo cholesterol biosynthesis from [3H]acetate by EL4 cells. The data set is classed as cell-based. The following applies: for % total radioactivity incorporated as cholesterol, experiment I / % total radioactivity incorporated as cholesterol, experiment II: single determinations of triplicate; for % total radioactivity incorporated as cholesterol, Mean: two experiments in triplicate. The procedure: (§3) De novo synthesis of cholesterol by EL4 cells from [^3 H]acetic acid, sodium salt (Amersham) (103 GBq/mmol) was quantitated using [4-^14 C]cholesterol (Amersham) (2.04 GBq/mmol) as internal standard by the method of Ho et al., J.Exp.Med.(1977) 145:1531-1549). Each determination was performed in triplicate, each consisting of 0.8 ml of a cell suspension (2×10^7 EL4 cells/ml) incubated with [^3 H]acetate (0.25 mM) and the test compound (0.1 ml, 10^-6 M-10^-4 M) for 5 or 48 hours at 37° C.
^a EL4 cells (20 × 10^6 cells/ml in well) were incubated
with 0.25 mM [^3 H]acetate in the absence or presence of 2 (10^-6
^b EL4 cells (20 × 10^6 cells/ml in well) were incubated
with 0.25 mM [^3 H] acetate in the absence or presence of 2 (10^-
with 0.25 mM [^3 H]acetate in the absence or presence of 4 (10^-4

Data set [8] in a line: Cell viability of EL4 cells by trypan blue exclusion. The data set is classed as cell-based. Conditions: mouse, el4 cells, trypan blue exclusion. The procedure:
(§4) Cell counts were performed manually using a Neubauer hemocytometer. Cell viability was assessed by trypan blue exclusion. The table below (Table HI) is a summary
as §3
(§5) ^e Cell viability was estimated by trypan blue exclusion.
(§6) ^d Cell viability was estimated by trypan blue exclusion.

Data set [9] has as its system EL4 cells. Described as above. The data set is classed as cell-based. Conditions: compound 2, 5 hours. How it is done: as §4, §3, §5, §6
The conditions of data set [10]: prior art; cited from earlier work.
[11] abbreviates: compound 2, concentration 10^-M [sic], 48 hours.

Several values for one entry are separate records, joined by “and”; a condition that tells them apart may be missing. Equal values may be shown once.

Broadly, the viability is a read-out of living cells in per cent, often relative to untreated cells.

`COc1ccc2c(-c3ccc(OCCN(C)C)cc3)c(Cc3ccc(Cl)cc3)oc2c1` [Compound 1] came in with an RBA in data set [1] of 391 ± 195. In addition, the remaining activity at 0.5 µM in [2] came to 98 ± 1%. Also, the IC50 is 0.95 ± 0.05 µM in data set [3] and 5.025 ± 0.025 µM in [4].
`COc1ccc(C2=C(C(=O)c3ccc(OCCN4CCCC4)cc3)c3ccccc3CC2)cc1` [Trioxifene]: the “clinical efficacy as antiestrogen (in words)” value in data set [5] is recorded as “an effective antiestrogen in clinical trials”. In addition, the “estrogenic activity (in words)” value in data set [6] (compared with tamoxifen) is “possesses greater estrogenic activity than tamoxifen”.
As to `COc1ccc2c(-c3ccc(OCCN4CCCC4)cc3)c(Cc3ccc(Cl)cc3)oc2c1` [Compound 2, 2-(p-Chlorobenzyl)-3-[p-(2-pyrrolidinoethoxy)phenyl]-6-methoxybenzo[b]furan], the RBA in data set [1] was 268 ± 92. The figures for the IC50 in data set [3] and in [4] were 0.475 ± 0.225 µM and 2.3 ± 0.1 µM, respectively. Also, the “inhibition of cholesterol biosynthesis (in words)” value in data set [7] (as early as 5 hours after treatment) is listed as “significant inhibition of cholesterol biosynthesis”. The “% inhibition of cholesterol synthesis” value in data set [7] (compound 2, 10^-6 M, 5 hours, p < 0.01, Student's t test) is given as 48%; in data set [7] (compound 2, concentration 10^-M [sic], 48 hours, p < 0.01, Student's t test), 47%. Also, the “% total radioactivity incorporated as cholesterol, experiment I” value was 0.13% and 0.10% and 0.12% in [7] (compound 2, 10^-6 M, 5 hours); 0.16% and 0.15% and 0.24% in [7] (setting [11]). Further, the “% total radioactivity incorporated as cholesterol, experiment II” value was 0.11% and 0.12% and 0.14% in data set [7] (compound 2, 10^-6 M, 5 hours); 0.14% and 0.17% in [7] (setting [11]). Besides, the “% total radioactivity incorporated as cholesterol, Mean” value worked out at 0.12 ± 0.01% in data set [7] (compound 2, 10^-6 M, 5 hours, control 0.23 ± 0.02) and 0.17 ± 0.02% in data set [7] (compound 2, concentration 10^-M [sic], 48 hours, control 0.32 ± 0.02). For the same compound, in data set [8] (compound 2, 10^-6 M, 5 hours, control 96), the viability at 5 h, 1 µM came to 91%. Besides, the viability at 48 h in data set [8] (compound 2, concentration 10^-M [sic], 48 hours, control 92) was determined as 87%. Moreover, the “cell viability (in words)” value in data set [9] is “not associated with loss of cell viability”.
`COc1ccc2c(-c3ccc(OCCN4CCCCC4)cc3)c(Cc3ccc(Cl)cc3)oc2c1` [Compound 3, 2-(p-Chlorobenzyl)-3-[p-(2-piperidinoethoxy)phenyl]-6-methoxybenzo[b]furan] showed an RBA in data set [1] of 605 ± 371. Besides, in data set [2], the remaining activity at 0.5 µM stood at 93.5 ± 0.5%. Also, the IC50 in data set [3] amounted to 0.3 ± 0.15 µM; in data set [4], 2.05 ± 0.05 µM.
`O=C(c1ccc(OCCN2CCCC2)cc1)c1c(-c2ccc(O)cc2)sc2cc(O)ccc12` [LY117018]: in [6], the “antagonist/agonist character (in words)” value is given as “partial antagonists/agonists (like tamoxifen)”. In data set [10], the “duration of action in vivo (in words)” value is on record as “shorter duration of action in vivo”.
With `CC/C(=C(\c1ccccc1)c1ccc(OCCN(C)C)cc1)c1ccccc1` [1a (Tamoxifen), 1-[4-(2-dimethylaminoethoxy)phenyl]-1,2-diphenylbut1-(Z)-ene], in data set [1], the RBA is 100. In addition, in data set [5], the “adverse side effects (in words)” value was “low incidence of adverse side effects” and the “clinical efficacy as antiestrogen (in words)” value is given as “established its efficacy”. The “antagonist/agonist character (in words)” value in data set [6] was “partial antagonists/agonists”.
`COc1ccc2c(-c3ccc(OCCN4CCOCC4)cc3)c(Cc3ccc(Cl)cc3)oc2c1` [Compound 4] had an RBA in [1] of 1828 ± 446. The remaining activity at 0.5 µM in [2] came to 104 ± 2.5%. Also, the IC50 in [3] was 0.335 ± 0.145 µM. In data set [4], the IC50 stood at 6.5 ± 0.5 µM. The “% inhibition of cholesterol synthesis” value in data set [7] (compound 4, 10^-4 M, 5 hours, p < 0.05, Student's t test) stood at 56%. Also, in data set [7] (compound 4, 10^-4 M, 5 hours), the “% total radioactivity incorporated as cholesterol, experiment I” value is 0.19% and 0.09% and 0.05%; the “% total radioactivity incorporated as cholesterol, experiment II” value is 0.11% and 0.12%. Further, the “% total radioactivity incorporated as cholesterol, Mean” value in data set [7] (compound 4, 10^-4 M, 5 hours, control 0.25 ± 0.02) turned out to be 0.11 ± 0.03%. The “incorporation of [3H]acetate into cholesterol (in words)” value in [7] (compound 4 at higher concentration (Table V)) was “decreased incorporation of [^3 H]acetate into cholesterol”. For the same compound, the viability at 5 h, 100 µM in [8] (compound 4, 10^-4 M, 5 hours, control 96) worked out at 79%.

Source of the values: patent US5354861A, “2-(benzyl)-3-arylbenzofurans as antitumour and hypocholesterolemic agents” (National University of Singapore, priority 1992, dated 1994).
